Key:
Type in all cases: cell-based
[1] = test system: Staphylococcus aureus, ATCC 29213; experiment: MIC, NCCLS/CLSI guidelines (Example 5), strain A; conditions: relative to wildtype Plectasin; average of two independent experiments
Experimental: (§1) Plectasin wild-type (SEQ ID NO: 1) and several variants of Plectasin were expressed and purified. The Minimal Inhibitory Concentration (MIC) was determined to test for their antimicrobial activity following the NCCLS guidelines from CLSI (Clinical and Laboratory Standards Institute; formerly known as National Committee for Clinical and Laboratory Standards).
(§2) The peptides were tested against the following strains: • A: Staphylococcus aureus, ATCC 29213; • B: Staphylococcus aureus, ATCC 25923; • C: Staphylococcus aureus, ATCC 29737; • D: Staphylococcus aureus, MRSA ST5 (2001), multi-resistant clinical human isolate from Statens Serum Institut, Denmark; • E: Staphylococcus aureus, MRSA ST80 (2003), multi-resistant clinical human isolate from Statens Serum Institut, Denmark.
(§3) All MIC values represent an average of two independent experiments; and all results in Table 5 are expressed relative to wildtype Plectasin:
(§4) 0: >100% of Plectasin wildtype MIC; 1: 80-100% of Plectasin wildtype MIC; 2: 50-80% of Plectasin wildtype MIC; 3: <50% of Plectasin wildtype MIC.

[2] = test system: Staphylococcus aureus, ATCC 29737; experiment: MIC, NCCLS/CLSI guidelines (Example 5), strain C; conditions: relative to wildtype Plectasin; average of two independent experiments
Experimental: as §1, §2, §3, §4

[3] = test system: Staphylococcus aureus, MRSA ST5 (2001); experiment: MIC, NCCLS/CLSI guidelines (Example 5), strain D; conditions: relative to wildtype Plectasin; average of two independent experiments
Experimental: as §1, §2, §3, §4

[4] = test system: Staphylococcus aureus, MRSA ST80 (2003); experiment: MIC, NCCLS/CLSI guidelines (Example 5), strain E; conditions: relative to wildtype Plectasin; average of two independent experiments
Experimental: as §1, §2, §3, §4

[5] = test system: panel of 6 different strains of Staphylococcus aureus; experiment: Average MIC, NCCLS/CLSI guidelines using caMHB (Example 6); conditions: average over 6 S. aureus strains, duplicate; MIC above 32 counted as 64; read after 18-24 hours at 37° C.
Experimental: A large number of antimicrobial peptides of the invention were tested against a panel of 6 different strains of Staphylococcus aureus listed below:
Staphylococcus aureus, ATCC29213, MSSA, NCCLS reference strain; Staphylococcus aureus, ATCC25923, MSSA, NCCLS reference strain; Staphylococcus aureus, ATCC29737, MSSA; Staphylococcus aureus, E33235, MSSA; Staphylococcus aureus, 698-01, MRSA ST5, Str, Kan, Oxa; Staphylococcus aureus, 566-03, MRSA ST80, Oxa, Tet, Fus, Kan.
The staphylococci were exposed to the following peptide concentrations: 32; 16; 8; 4; 2; 1; 0.5; 0.25; 0.13; […]; and 0.03 microgram/mL. All peptides were purified, HPLC quantified and the concentrated peptides (>160 micrograms/mL) were diluted to 160 micrograms/mL in peptide dilution buffer (0.1% BSA, 0.01% Acetic Acid).
The MIC determination was done essentially as described by NCCLS/CLSI guidelines using caMHB. The MICs were read after 18-24 hours of 37° C. incubations and recorded along with the CFU in the table below.
A total number of 95 antimicrobial peptides of the invention were evaluated in duplicate against the 6 bacterial strains described above.
In the majority of the double determinations (93%), the MIC varied <2 fold. An average MIC is tabulated below. If the MIC was above 32 micrograms/mL, a value of 64 was used to calculate the average.

[6] = test system: Staphylococcus carnosus ATCC51365; experiment: Yeast screening assay: radial diffusion assay of yeast supernatants; parameters: key: An activity of 3 is better than Plectasin; An activity of 2 corresponds to the activity of Plectasin; 1 is worse than Plectasin; conditions: yeast supernatant, clearing zone in radial diffusion assay
Procedure, shortened: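 Activity scores (1 worse, 2 equal, 3 better than wild-type plectasin) come from the size of the radial-diffusion clearing zone against S. carnosus at 5×10^5 cfu/mL. Test samples were culture supernatants of yeast transformants induced with galactose for 3 days at 30 °C, and plates were developed at 37 °C with MTT.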

Substance | Average MIC [5] | Activity (antimicrobial activity relative to the activity of plectasin) [6] | other results
D9S + Q14L: variant of Plectasin (SEQ ID NO: 1) (GFGCNGPWSEDDMLCHNHCKSIKGYKGGYCAKGGFVCKCY) | 3 micrograms/mL |  | Relative MIC, strain A [1]: 3 (<50% of Plectasin wildtype MIC); Relative MIC, strain C [2]: 3 (<50% of Plectasin wildtype MIC); Relative MIC, strain D [3]: 3 (<50% of Plectasin wildtype MIC); Relative MIC, strain E [4]: 3 (<50% of Plectasin wildtype MIC)
GFGCAGPWDEDDMQCHNHCKSIKGYKGGYCAKGGFVCKCY [Mutation N5A] | 29 micrograms/mL | 3 | 
GFGCGGPWDEDDMQCHNHCKSIKGYKGGYCAKGGFVCKCY [Mutation N5G] | 24 micrograms/mL | 3 | 
GFGCNGPWDEDDMGCHNHCKSIKGYKGGYCAKGGFVCKCY [Mutation Q14G] | 18 micrograms/mL | 3 | 
GFGCNGPWDEDDMQCHNHCKSIKGYKGGYCAKGGFLCKCY [Mutation V36L] | 26 micrograms/mL | 3 | 
GFGCNGPWDEDDMQCHNHCKSIKGYKGGYCNKGGFVCKCY [Mutation A31N] | 9 micrograms/mL | 3 | 
GFGCNGPWDEDDMQCHSHCKSIRGYKGGYCAKGGFVCKCY [N17S + K23R] | 14 micrograms/mL | 2 | 
GFGCNGPWDEDDMSCHNHCKSIKGYKGGYCAKGGFVCKCY [Mutation Q14S] | 21 micrograms/mL | 3 | 
GFGCNGPWDEDDMVCHNHCKSIKGYRGGYCAKGGFVCKCY [Q14V + K26R] | 12 micrograms/mL | 3 | 
GFGCNGPWDEDDRQCHNHCKSIKGYKGGYCAKGGFVCKCY [Mutation M13R] | 9 micrograms/mL | 3 | 
GFGCNGPWDEDDSQCHNHCKSIKGYKGGYCAKGGFVCKCY [Mutation M13S] | 24 micrograms/mL | 3 | 
GFGCNGPWDEDDTQCHNHCKSIKGYKGGYCAKGGFVCKCY [Mutation M13T] | 26 micrograms/mL | 2 | 
GFGCNGPWDEGDMQCHNHCKSVKGYKGGYCAKGGFVCKCY [D11G + I22V] | 17 micrograms/mL | 3 | 
GFGCNGPWGEDDMQCHNHCKSIKGYKGGYCAKGGFVCKCY [Mutation D9G] | 21 micrograms/mL | 3 | 
GFGCNGPWKEDDMQCHNHCKSIKGYKGGYCAKGGFVCKCY [Mutation D9K] | 7 micrograms/mL | 3 | 
GFGCNGPWVEDDMQCHNHCKSIKGYKGGYCAKGGFVCKCY [Mutation D9V] | 30 micrograms/mL | 3 | 
GFGCSGPWDEDDMQCHNHCKSIKGYKGGYCAKGGFVCKCY [Mutation N5S] | 24 micrograms/mL | 3 | 
M13L + Q14K + K26R: variant of Plectasin (SEQ ID NO: 1) (GFGCNGPWDEDDLKCHNHCKSIKGYRGGYCAKGGFVCKCY) | 9 micrograms/mL |  | Relative MIC, strain A [1]: 3 (<50% of Plectasin wildtype MIC); Relative MIC, strain C [2]: 3 (<50% of Plectasin wildtype MIC); Relative MIC, strain D [3]: 3 (<50% of Plectasin wildtype MIC)

Substance | Average MIC [5] | Activity (antimicrobial activity relative to the activity of plectasin) [6] | other results
N5D + D9S + Q14R: antimicrobial peptide of the invention, Plectasin variant (GFGCDGPWSEDDMRCHNHCKSIKGYKGGYCAKGGFVCKCY) | 16 micrograms/mL |  | 
N5G + D9A + Q14S + K23T + A31T: antimicrobial peptide of the invention, Plectasin variant (GFGCGGPWAEDDMSCHNHCKSITGYKGGYCTKGGFVCKCY) | 14 micrograms/mL |  | 
N5G + M13W + N17S: antimicrobial peptide of the invention, Plectasin variant (GFGCGGPWDEDDWQCHSHCKSIKGYKGGYCAKGGFVCKCY) | 10 micrograms/mL |  | 
N5G + M13W: antimicrobial peptide of the invention, Plectasin variant (GFGCGGPWDEDDWQCHNHCKSIKGYKGGYCAKGGFVCKCY) | 9 micrograms/mL |  | 
N5H + M13E + N17E: antimicrobial peptide of the invention, Plectasin variant (GFGCHGPWDEDDEQCHEHCKSIKGYKGGYCAKGGFVCKCY) | 12 micrograms/mL |  | 
N5K + M13L: antimicrobial peptide of the invention, Plectasin variant (GFGCKGPWDEDDLQCHNHCKSIKGYKGGYCAKGGFVCKCY) | 9 micrograms/mL |  | 
N5S + M13V + N17A: antimicrobial peptide of the invention, Plectasin variant (GFGCSGPWDEDDVQCHAHCKSIKGYKGGYCAKGGFVCKCY) | 18 micrograms/mL |  | 
N5S + M13V + N17T: antimicrobial peptide of the invention, Plectasin variant (GFGCSGPWDEDDVQCHTHCKSIKGYKGGYCAKGGFVCKCY) | 16 micrograms/mL |  | 
N17A: antimicrobial peptide of the invention, Plectasin variant (GFGCNGPWDEDDMQCHAHCKSIKGYKGGYCAKGGFVCKCY) [Mutation N17A] | 15 micrograms/mL |  | 
N17F: antimicrobial peptide of the invention, Plectasin variant (GFGCNGPWDEDDMQCHFHCKSIKGYKGGYCAKGGFVCKCY) [Mutation N17F] | 12 micrograms/mL |  | 
N17K + K32R: antimicrobial peptide of the invention, Plectasin variant (GFGCNGPWDEDDMQCHKHCKSIKGYKGGYCARGGFVCKCY) | 7 micrograms/mL |  | 
N17K: antimicrobial peptide of the invention, Plectasin variant (GFGCNGPWDEDDMQCHKHCKSIKGYKGGYCAKGGFVCKCY) [Mutation N17K] | 11 micrograms/mL |  | 
N17R + Y25R: antimicrobial peptide of the invention, Plectasin variant (GFGCNGPWDEDDMQCHRHCKSIKGRKGGYCAKGGFVCKCY) | 18 micrograms/mL |  | 
N17S: antimicrobial peptide of the invention, Plectasin variant (GFGCNGPWDEDDMQCHSHCKSIKGYKGGYCAKGGFVCKCY) [Mutation N17S] | 14 micrograms/mL |  | 
N17T: antimicrobial peptide of the invention, Plectasin variant (GFGCNGPWDEDDMQCHTHCKSIKGYKGGYCAKGGFVCKCY) [Mutation N17T] | 21 micrograms/mL |  | 
S21A: antimicrobial peptide of the invention, Plectasin variant (GFGCNGPWDEDDMQCHNHCKAIKGYKGGYCAKGGFVCKCY) [Mutation S21A] | 17 micrograms/mL |  | 
S21N: antimicrobial peptide of the invention, Plectasin variant (GFGCNGPWDEDDMQCHNHCKNIKGYKGGYCAKGGFVCKCY) [Mutation S21N] | 11 micrograms/mL |  | 
S21V: antimicrobial peptide of the invention, Plectasin variant (GFGCNGPWDEDDMQCHNHCKVIKGYKGGYCAKGGFVCKCY) [Mutation S21V] | 26 micrograms/mL |  | 
